Test [1] concerns the target T1, Alkaline phosphatase, tissue-nonspecific isozyme (Homo sapiens, UniProt P05186).
T1 sequence (P05186 whole entry): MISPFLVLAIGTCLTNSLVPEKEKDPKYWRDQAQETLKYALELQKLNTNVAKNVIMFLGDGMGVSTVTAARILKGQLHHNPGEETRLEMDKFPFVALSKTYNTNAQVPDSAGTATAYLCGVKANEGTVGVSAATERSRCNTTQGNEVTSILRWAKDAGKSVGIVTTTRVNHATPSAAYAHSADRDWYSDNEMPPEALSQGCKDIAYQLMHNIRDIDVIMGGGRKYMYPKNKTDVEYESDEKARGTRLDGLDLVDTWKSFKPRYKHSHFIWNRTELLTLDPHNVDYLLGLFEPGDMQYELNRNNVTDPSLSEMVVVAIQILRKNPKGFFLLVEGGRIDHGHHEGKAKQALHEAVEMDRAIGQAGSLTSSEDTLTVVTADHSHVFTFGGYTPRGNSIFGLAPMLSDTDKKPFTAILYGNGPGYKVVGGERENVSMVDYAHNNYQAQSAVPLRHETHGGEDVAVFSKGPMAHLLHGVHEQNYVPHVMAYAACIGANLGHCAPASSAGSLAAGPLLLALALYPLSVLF
Description: human TNAP enzyme inhibitors, SAR follow-up, biochemical, luminescent, dose response (AID 1056).

In test [2] the target is T2, Coagulation factor XII (Homo sapiens, UniProt P00748).
T2 sequence (P00748 whole entry): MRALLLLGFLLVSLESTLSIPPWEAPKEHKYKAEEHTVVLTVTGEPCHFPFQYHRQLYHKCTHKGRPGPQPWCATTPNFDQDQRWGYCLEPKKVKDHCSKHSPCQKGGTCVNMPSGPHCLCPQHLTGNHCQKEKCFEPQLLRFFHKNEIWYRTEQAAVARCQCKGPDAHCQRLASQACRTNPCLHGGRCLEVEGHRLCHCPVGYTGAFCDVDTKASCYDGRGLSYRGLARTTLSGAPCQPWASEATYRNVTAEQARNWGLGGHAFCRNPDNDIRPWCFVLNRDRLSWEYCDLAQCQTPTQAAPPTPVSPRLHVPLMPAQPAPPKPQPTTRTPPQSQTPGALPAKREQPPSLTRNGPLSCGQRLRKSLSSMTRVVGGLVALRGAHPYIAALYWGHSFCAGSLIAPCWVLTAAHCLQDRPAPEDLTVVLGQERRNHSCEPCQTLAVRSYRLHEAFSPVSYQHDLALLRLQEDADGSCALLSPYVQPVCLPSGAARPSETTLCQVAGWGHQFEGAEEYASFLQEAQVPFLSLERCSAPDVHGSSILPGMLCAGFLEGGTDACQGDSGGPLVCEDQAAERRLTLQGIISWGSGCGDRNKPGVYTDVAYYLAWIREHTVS
The test is described as follows: FXIIa inhibitor potency, concentration-response, biochemical (AID 716). The format is functional.

In test [3] the target is Integrin alpha-4 (Homo sapiens, UniProt P13612). The test is described as follows: VLA-4 integrin allosteric ligands, SAR follow-up, cell-based, LIBS antibody binding, flow cytometry (AID 488791). The format is functional. Background: In flow cytometry, cells or beads pass a laser one at a time.
Test [4] addresses DNA damage-inducible transcript 3 protein (Mus musculus, UniProt P35639). The format is functional, Cricetulus griseus.
Test [5] deals with X-box-binding protein 1 (Homo sapiens, UniProt P17861). The format is functional, Cricetulus griseus.
For test [6], the target named is Troponin, cardiac muscle (Homo sapiens, UniProt P19429+P45379+P63316). Description: Fluorescence-based biochemical high throughput dose response assay for activators of the calcium sensitivity of cardiac Regulated Thin Filaments (RTF). [Related pubchem assays (depositor defined):AID493008, AID493018, AID504382, AID504383]. Format: protein-complex assay.
Test [7] addresses SUMO-activating enzyme (Homo sapiens, UniProt Q9UBT2). Description: SUMOylation inhibitor hit validation, confirmation, SUMOylation inhibitor project, biochemical, AlphaScreen (AID 2018). The format is functional.
The nature of test [8]: Artemis endonuclease inhibitor potency, dose response, biochemical, fluorescence intensity (AID 720701).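 Also: Artemis endonuclease enzyme.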 The format is functional.
Test [9] is described as follows: growth suppression of PTEN-null colon cells, dose response, cell-based, HCT116 PTEN knockout (AID 1047).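 Also: HCT116 colon tumor cells with PTEN knocked out; cells exposed to compound for 60 hours before readout; potency for loss of cell viability measured by luminescence.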 The format is functional.
Test [10] can be described thus: growth suppression of beta-catenin-knockout colon cells, dose response, cell-based, HCT116, human colon tumor (AID 1045).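 Also: HCT116 colon tumor cells with beta catenin knocked out; cells exposed to compound for 60 hours.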 The format is functional.
Test [11] deals with T3, Mannose-6-phosphate isomerase (Homo sapiens, UniProt P34949).
T3 sequence (P34949 whole entry): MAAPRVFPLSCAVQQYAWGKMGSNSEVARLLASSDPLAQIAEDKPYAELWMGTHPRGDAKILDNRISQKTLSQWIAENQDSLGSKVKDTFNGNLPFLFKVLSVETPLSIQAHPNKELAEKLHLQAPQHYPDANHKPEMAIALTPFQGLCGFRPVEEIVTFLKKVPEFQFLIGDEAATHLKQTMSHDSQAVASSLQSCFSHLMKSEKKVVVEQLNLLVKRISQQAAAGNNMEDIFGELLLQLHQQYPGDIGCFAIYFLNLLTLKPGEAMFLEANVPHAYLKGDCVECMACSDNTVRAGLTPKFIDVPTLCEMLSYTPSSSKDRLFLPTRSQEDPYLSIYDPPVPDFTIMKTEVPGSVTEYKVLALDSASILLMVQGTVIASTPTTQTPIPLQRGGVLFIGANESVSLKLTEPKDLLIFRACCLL
The test is described as follows: Confirmation of compounds inhibiting phosphomannose isomerase (PMI) via a fluorescence intensity assay using a high concentration of mannose 6-phosphate. [Related pubchem assays (depositor defined):AID1209, AID1220, AID1545, AID1553, AID1620].

In test [12] the target is T3, Mannose-6-phosphate isomerase. Description: PMI enzyme inhibitors, confirmation, biochemical, fluorescence intensity (AID 1535).
The target in test [13] is Phosphomannomutase 2 (Homo sapiens, UniProt O15305). The test is described as follows: Counter screen SAR assay for PMM2 inhibitors via a fluorescence intensity assay. [Related pubchem assays (depositor defined):AID1545, AID1574]. On the technique in general: A counterscreen serves to expose hits that act by an unwanted route or on another target.
In test [14] the target is NACHT, LRR and PYD domains-containing protein 3 (Homo sapiens, UniProt Q96P20). Description: NALP3 inhibitors in yeast, dose response, luminescent (AID 488799). Format: functional.
Test [15] in a line: Luminescence Cell-Based Dose Response HTS to Identify Activators of 5'UTR Stem-Loop Driven Prion Protein mRNA Translation in H4-C Neuroglioblastoma Cells. [Related pubchem assays: 1829 (Project Summary), 1814 (Primary HTS)]. Format: functional.
Test [16] in a line: Luminescence Cell-Based Dose Confirmation HTS to Identify Activators of 5'UTR Stem-Loop Driven Alpha-Synuclein mRNA Translation in H4 Neuroglioblastoma Cells. [Related pubchem assays: 1829 (Project Summary), 1814 (Primary HTS)]. The format is functional.
Test [17] can be described thus: Luminescence Cell-Based Dose Response HTS to Identify Activators of Luciferase Translation or Activity in H4-C Neuroglioblastoma Cells. [Related pubchem assays: 1829 (Project Summary), 1814 (Primary HTS)]. Format: functional.
The nature of test [18]: Luminescence Cell-Based Dose Response HTS to Identify Activators of Luciferase Translation or Activity in H4 […] Cells. [Related pubchem assays: 1829 (Project Summary), 1814 (Primary HTS)]. The format is functional.
The nature of test [19]: Luminescence Cell-Based Dose Retest to Confirm Activators of 5'UTR Stem-Loop Driven Alpha-Synuclein mRNA Translation in H4 Neuroglioblastoma Cells. [Related pubchem assays (depositor defined):AID1813, AID1829]. Format: functional.
Test [20] concerns H4. Description: Luminescence Cell-Based Dose Response HTS to Identify Activators of 5'UTR Stem-Loop Driven Prion Protein mRNA Translation in H4 Neuroglioblastoma Cells. [Related pubchem assays: 1829 (Project Summary), 1814 (Primary HTS)]. The format is functional. The following applies: Homo sapiens.
Test [21] addresses T4, Kappa-type opioid receptor (Homo sapiens, UniProt P41145). Description: SAR analysis of small molecule antagonists of the kappa opioid receptor via a luminescent beta-arrestin assay - Set 3. [Related pubchem assays (depositor defined):AID1777, AID1778, AID1785, AID1786, AID1966, AID2133, AID2136, AID2285, AID2495]. The format is functional.
Test [22] addresses Delta-type opioid receptor (Homo sapiens, UniProt P41143). Description: SAR Analysis of Antagonists of the DOR Receptor using an Image-Based Assay - Set 3. [Related pubchem assays (depositor defined):AID1777, AID1785]. The format is functional.
The target of test [23] is Mu-type opioid receptor (Homo sapiens, UniProt P35372). The test is described as follows: SAR Analysis of Antagonists of the MOR Receptor using an Image-Based Assay - Set 3. [Related pubchem assays (depositor defined):AID1777, AID1785, AID1786, AID1966, AID2133, AID2136, AID2284, AID2285, AID2420]. Format: functional.
Test [24] has as its target T4, Kappa-type opioid receptor. Description: SAR analysis of Antagonists of the Kappa Opioid Receptor (KOR) using an Image-Based Assay - Set 3. [Related pubchem assays (depositor defined):AID1777, AID1785]. Format: functional.
In test [25] the target is Cystic fibrosis transmembrane conductance regulator/Golgi-associated PDZ and coiled-coil motif-containing protein (Homo sapiens, UniProt P13569+Q9HD26). Description: CAL PDZ peptide-binding inhibitors, dose response, biochemical, fluorescence polarization, Cerulean-tagged CAL PDZ, cherry-picks (AID 504773). In general terms: Polarisation of emitted light reports the rotation of a fluorescent probe.

In test [26] the target is Alkaline phosphatase, placental type (Homo sapiens, UniProt P05187). Description: PLAP enzyme inhibitors, confirmation, biochemical, luminescence (AID 1512). The format is functional.
Test [27] concerns the target T5, Runt-related transcription factor 1/Core-binding factor subunit beta (Homo sapiens, UniProt Q01196+Q13951). The test is described as follows: inhibitors of RUNX1 Runt–CBFb-SMMHC binding, primary screen, biochemical, FRET, Cerulean-Runt, Venus-CBFb-SMMHC, uHTS (AID 1434).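 Also: partner is the CBFb-SMMHC leukemia fusion protein rather than wild-type CBFb.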 Format: protein assay.
Test [28] has as its target T5, Runt-related transcription factor 1/Core-binding factor subunit beta. The test is described as follows: inhibitors of RUNX1 Runt–CBFb-SMMHC binding, biochemical, TR-FRET (AID 1438). The format is protein assay.
Test [29] concerns the target Phosphoethanolamine/phosphocholine phosphatase (Homo sapiens, UniProt Q8TCT1). Description: SAR assay for compounds that inhibit PHOSPHO1. [Related pubchem assays (depositor defined):AID1545, AID1565, AID1574].

Calls of active or inactive are those of the source. Some results are limits rather than exact numbers.
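For Absolute IC50 (XBP1) in this document: confirmatory dose-response counter-screen serving a CHOP assay.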

By IC50 is commonly meant the concentration needed to halve the response being measured. As for `CC(C)NCC(=O)c1ccc(O)c(O)c1`, the IC50 in test [1] is > 100 µM (inactive).

On to `O=C(NCc1n[nH]c(=S)n1-c1ccccc1)c1ccco1`, for which, in test [2], the IC50 is > 50 µM (inactive).

The EC50 is the concentration that produces a half-maximal response. Take `COC(=O)C1OC2(OC1C(=O)OC)c1ccccc1-c1ccccc12` (stereo unspecified): in test [3], the concentration for a half-maximal effect (EC50) was 7.14 µM (active).

For `Cc1ccc(NC(=O)c2cc(NC(=O)c3ccco3)ccc2N2CCCCC2)cc1`, the “Absolute IC50 (CHOP)” value in test [4] came out at 10 µM. For the same compound, the “Absolute IC50 (XBP1)” value in test [5] came out at 10 µM.

With `O=[N+]([O-])c1ccc(/C=C/C2=NN(c3ccccc3)C(c3ccco3)C2)cc1` (stereo unspecified), in [6], the EC50 is 0.397 µM (active).

On to `Cn1c(-c2ccc(C=O)s2)nc2c3ccccc3c3ccccc3c21`, for which the IC50 is > 100 µM (inactive) in test [7] and > 20 µM (inactive) in test [8]. The EC50 was 25.7 µM (active) in test [9] and 24.9 µM (active) in test [10].

For the compound `O=c1c2ccc(O)cc2sn1C1CCCC1`, the IC50 in test [11], in test [12] and in test [13] was > 100 µM (inactive) each time.

For `COc1cc(CNCCc2ccccc2)ccc1OCc1ccc(Cl)nc1`, the half-maximal inhibitory concentration (IC50) in [14] was 30.1 µM (active).

For the compound `O=C1Nc2ccccc2S/C1=C\C(=O)N1CCCC1`, the EC50 is 9.5 µM (active) in [15]; 0.264 µM (active) in [16]; 13.2 µM (active) in test [17]; 8.16 µM (active) in test [18]; > 195 µM (inactive) in [19]; > 120 µM (not active) in [20].

Take `O=C(Cn1c(=O)c2cccn2c2cccnc21)NCCCN1CCC(Cc2ccccc2)CC1`: the IC50 was 4.65 µM (active) in test [21], > 32 µM (inactive) in test [22], > 32 µM (inactive) in test [23] and 1.31 µM (active) in [24].

In general, AC50 refers to the midpoint of the concentration-response curve, whichever way the signal moves. Take `O=C(c1ccccc1)C(c1ccccc1)c1ccccc1`: in test [25], the AC50 is > 56 µM (inactive).

Turning to `COCCNC(=O)NC1(C(F)(F)F)Oc2cc(Cl)c(Cl)cc2O1`, the IC50 in test [26] was > 100 µM (inactive).

As to `C/C(=N\Nc1nc(-c2cc(C)ccc2C)cs1)c1cc2c(ccc3ccccc32)oc1=O`, the IC50 in test [27] is > 100 µM (inactive); in test [28] it was 10.1 µM (active).

With `Cc1ccc(C)c(-n2[se]c3ccccc3c2=O)c1`, the IC50 was 36 µM (inactive) in test [29], 88 µM (active) in test [12] and > 100 µM (inactive) in test [13].

The values above are taken from ChEMBL document CHEMBL1201862, “PubChem BioAssay data set” (2004).
